Measurements taken from PMC10786919, “Design-rules for stapled peptides with in vivo activity and their application to Mdm2/X antagonists” (Nature Communications, 2024).
≈ marks a conversion by molar mass, not a printed value. Read-outs that look alike come from different tables or passages of the source. Positions of bridges follow the written chain, without caps; N, C: chain ends. Non-standard residues stand in square brackets, D forms with d. Residues, ends and D or L forms follow the SMILES beside them. tBuAla = CC(C)(C)C[C@H](N)C(=O)O; R8 = C=CCCCCCC[C@@](C)(N)C(=O)O; Cba = N[C@@H](CC1CCC1)C(=O)O; R5 = C=CCCC[C@@](C)(N)C(=O)O; S5 = C=CCCC[C@](C)(N)C(=O)O; Ahx = NCCCCCC(=O)O

Columns and labels:
[1] = Lactate dehydrogenase (LDH) release assay; format: cell-based; details: LDH: Cytotoxicity assay EC50
Summary of the method: (§1)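 LDH release, fluorometric membrane-integrity read-out; HCT116 with stable p53-responsive β-lactamase reporter; 8000 cells/well; 0.5% DMSO final; geometric mean, n≥3 biological replicates.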

[2] = Solubility assay (kinetic solubility, PBS pH 7); format: physicochemical; details: pH 7, aqueous buffer, kinetic from dmso stock
Summary of the method: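 Next, measure peak areas of sample and standard. Finally, multiply their ratio by the standard concentration to obtain solubility (µM).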

[3] = physchem
[4] = Experimental LogD (partition coefficient)
[5] = test system: p53 responsive β-lactamase reporter in HCT116 cells; assay: cells; format: cell-based; details: for EC50: read-out: p53 reporter assay EC50
Summary of the method: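 Read-out used the ToxBLAzer Dual Screen for β-lactamase driven by a stably integrated p53-responsive reporter. Assay: 8000 HCT116 cells per well at 0.5% final DMSO. Reported numbers are geometric means over a minimum of three biological replicates.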

[6] = test system: HCT116 cells; assay: Lactate dehydrogenase (LDH) release assay; format: cell-based
Summary of the method: as §1

[7] = test system: Jump-In T-REx CHO-K1 BLA cells; assay: cells; format: cell-based; details: for EC50: read-out: TETCHO: Counterscreen EC50
Experimental: This assay was based on Jump-In™ T-REx™ CHO-K1 BLA cells containing a stably integrated β-lactamase under the control of an inducible cytomegalovirus (CMV) promoter. Cells were maintained in Dulbecco’s […] Eagle Medium (DMEM) with 10% fetal bovine serum (FBS), Blasticidin, and Penicillin/Streptomycin and then transferred to 1.5 ml freezing vials and stored under liquid nitrogen in growth media containing 5% DMSO. […] Cells were seeded into a 384-well plate at a density of 4000 cells per well. Peptides were then dispensed to each well using a liquid handler, ECHO 555 and incubated for 16 h. The final working concentration of DMSO was 0.5%. β-lactamase activity was detected using the ToxBLAzer Dual Screen (Invitrogen), as per the manufacturer’s instructions. Measurements were carried out using the Envision multiplate reader (Perkin–Elmer). Counterscreen activity was defined as the amount of β-lactamase activity induced by tetracycline. Measurements were taken a minimum of three times (biological replicates) and values are reported as geometric means of the replicates.

## CC(=O)N[C@@H](CC(C)C)C(=O)N[C@H](C(=O)N[C@@H](Cc1ccccc1)C(=O)N[C@]1(C)CCCCCCC=CCCC[C@@](C)(C(=O)N[C@@H](CO)C(=O)N[C@@H](C)C(=O)N[C@@H](C)C(N)=O)NC(=O)[C@H](CC2CCC2)NC(=O)[C@H](CCCNC(=N)N)NC(=O)[C@H](CCC(N)=O)NC(=O)[C@H](Cc2c[nH]c3ccccc23)NC(=O)[C@H](Cc2ccc(O)cc2)NC(=O)[C@H](CCC(=O)O)NC1=O)[C@@H](C)O [MP-195] (Ac-LTF[R8]EYWQR[Cba][S5]SAA-NH2; staple 4-11)
[1]
  EC50: > 50 µM
[2]; pH 7, PBS, read-out: Solubility
  solubility kinetic: 3 µM (≈ 5.49 µg/mL)
[3]
  EPSA: 216 A^2
[4]; not stated, Partition Coeff LogD
  logD: 2.87

## CC(=O)N[C@H](C(=O)N[C@@H](CO)C(=O)N[C@@H](Cc1ccccc1)C(=O)N[C@]1(C)CCCCCCC=CCCC[C@@](C)(C(=O)N[C@@H](CCC(=O)O)C(=O)N[C@@H](CC(N)=O)C(=O)N[C@@H](Cc2ccccc2)C(N)=O)NC(=O)[C@H](CC(C)C)NC(=O)[C@H](CC(C)C)NC(=O)[C@H](C)NC(=O)[C@H](Cc2c[nH]c3ccccc23)NC(=O)[C@H](Cc2ccc(O)cc2)NC(=O)[C@H](CCC(=O)O)NC1=O)[C@@H](C)O [MP-1169]
[5]; 0% FBS 4Hr
  EC50: 5.34 µM
[1]
  EC50: 34.1 µM
[6]
  LDH: Cytotoxicity assay % Effect: 37.3%
[7]; 0% FBS 4Hr
  TETCHO: Counterscreen % Effect: 11.25%
  EC50: > 50 µM

## CC(=O)N[C@H](C(=O)N[C@@H](CO)C(=O)N[C@@H](Cc1ccccc1)C(=O)N[C@]1(C)CCCCCCC=CCCC[C@@](C)(C(=O)N[C@@H](CO)C(=O)N[C@@H](C)C(=O)N[C@@H](C)C(=O)N[C@@H](CCC(=O)O)C(N)=O)NC(=O)[C@H](CC(C)(C)C)NC(=O)[C@H](CC(C)C)NC(=O)[C@H](C)NC(=O)[C@H](Cc2c[nH]c3ccccc23)NC(=O)[C@H](Cc2ccc(O)cc2)NC(=O)[C@H](CCC(=O)O)NC1=O)[C@@H](C)O [MP-143] (Ac-TSF[R8]EYWAL[tBuAla][S5]SAAE-NH2; staple 4-11)
[5]; 0% FBS 4Hr
  EC50: 8.92 µM
[1]
  EC50: > 50 µM
[6]
  LDH: Cytotoxicity assay % Effect: 5.215%
[7]; 0% FBS 4Hr
  TETCHO: Counterscreen % Effect: 0.6237%
  EC50: > 50 µM

## CC(=O)N[C@@H](CCCNC(=N)N)C(=O)N[C@@H](CCCNC(=N)N)C(=O)N[C@@H](CCCNC(=N)N)C(=O)NCCCCCC(=O)N[C@H](C(=O)N[C@@H](CO)C(=O)N[C@@H](Cc1ccccc1)C(=O)N[C@]1(C)CCCCCCC=CCCC[C@@](C)(C(N)=O)NC(=O)[C@H](CC(C)C)NC(=O)[C@H](CC(C)C)NC(=O)[C@H](C)NC(=O)[C@H](Cc2c[nH]c3ccccc23)NC(=O)[C@H](Cc2ccc(O)cc2)NC(=O)[C@H](CCC(=O)O)NC1=O)[C@@H](C)O [MP-1177]
[5]; 0% FBS 4Hr
  EC50: 8.42 µM
[1]
  EC50: 31.8 µM
[6]
  LDH: Cytotoxicity assay % Effect: 51.96%
[7]; 0% FBS 4Hr
  TETCHO: Counterscreen % Effect: 50.69%
  EC50: 17.6 µM

## CC(=O)N[C@@H](CCCCN)C(=O)N[C@@H](CCCCN)C(=O)N[C@H](C(=O)N[C@@H](CO)C(=O)N[C@@H](Cc1ccccc1)C(=O)N[C@]1(C)CCCCCCC=CCCC[C@@](C)(C(N)=O)NC(=O)[C@H](CC(C)(C)C)NC(=O)[C@H](CC(C)C)NC(=O)[C@H](C)NC(=O)[C@H](Cc2c[nH]c3ccccc23)NC(=O)[C@H](Cc2ccc(O)cc2)NC(=O)[C@H](CCC(=O)O)NC1=O)[C@@H](C)O [MP-152] (Ac-KKTSF[R8]EYWAL[tBuAla][S5]-NH2; staple 6-13)
[5]; 0% FBS 4Hr
  EC50: 19.3 µM
[1]
  EC50: 17.2 µM
[6]
  LDH: Cytotoxicity assay % Effect: 49.97%
[7]; 0% FBS 4Hr
  TETCHO: Counterscreen % Effect: 34.57%
  EC50: 36.5 µM

## CC(=O)N[C@@H](Cc1c[nH]cn1)C(=O)N[C@@H](Cc1c[nH]cn1)C(=O)N[C@@H](Cc1c[nH]cn1)C(=O)NCCCCCC(=O)N[C@H](C(=O)N[C@@H](CO)C(=O)N[C@@H](Cc1ccccc1)C(=O)N[C@]1(C)CCCCCCC=CCCC[C@@](C)(C(N)=O)NC(=O)[C@H](CC(C)C)NC(=O)[C@H](CC(C)C)NC(=O)[C@H](C)NC(=O)[C@H](Cc2c[nH]c3ccccc23)NC(=O)[C@H](Cc2ccc(O)cc2)NC(=O)[C@H](CCC(=O)O)NC1=O)[C@@H](C)O [MP-008]
[5]; 0% FBS 4Hr
  EC50: 17.9 µM
[1]
  EC50: 28.5 µM
[6]
  LDH: Cytotoxicity assay % Effect: 42.18%
[7]; 0% FBS 4Hr
  TETCHO: Counterscreen % Effect: 75.71%
  EC50: > 50 µM

## CC(=O)N[C@H](C(=O)N[C@@H](CO)C(=O)N[C@@H](Cc1ccccc1)C(=O)N[C@]1(C)CCCC=CCCC[C@](C)(C(=O)N[C@@H](CC(C)C)C(=O)N[C@@H](CC(C)C)C(=O)N2CCC[C@H]2C(N)=O)NC(=O)[C@H](Cc2c[nH]c3ccccc23)NC(=O)[C@H](Cc2ccc(O)cc2)NC(=O)[C@H](CCC(=O)O)NC1=O)[C@@H](C)O [MP-1174] (Ac-TSF[R5]EYW[R5]LLP-NH2; staple 4-8)
[5]; 0% FBS 4Hr
  EC50: 18.7 µM
[1]
  EC50: > 50 µM
[6]
  LDH: Cytotoxicity assay % Effect: 2.374%
[7]; 0% FBS 4Hr
  TETCHO: Counterscreen % Effect: 7.183%
  EC50: > 50 µM

## CC(=O)N[C@H](C(=O)N[C@@H](CO)C(=O)N[C@@H](Cc1ccccc1)C(=O)N[C@]1(C)CCCC=CCCC[C@](C)(C(=O)N[C@@H](CC(C)C)C(=O)N[C@@H](CC(C)C)C(=O)N[C@@H](CO)C(=O)N[C@@H](CCC(=O)O)C(=O)N[C@@H](CC(N)=O)C(=O)N[C@@H](Cc2ccccc2)C(N)=O)NC(=O)[C@H](Cc2c[nH]c3ccccc23)NC(=O)[C@H](Cc2ccc(O)cc2)NC(=O)[C@H](CCC(=O)O)NC1=O)[C@@H](C)O [MP-167] (Ac-TSF[R5]EYW[R5]LLSENF-NH2; staple 4-8)
[5]; 0% FBS 4Hr
  EC50: 8.78 µM
[1]
  EC50: 26 µM
[6]
  LDH: Cytotoxicity assay % Effect: 34.73%
[7]; 0% FBS 4Hr
  TETCHO: Counterscreen % Effect: 22.82%
  EC50: 12.1 µM

## CC(=O)N[C@H](C(=O)N[C@@H](CO)C(=O)N[C@@H](Cc1ccccc1)C(=O)N[C@]1(C)CCCCCCC=CCCC[C@@](C)(C(N)=O)NC(=O)[C@H](CC(C)C)NC(=O)[C@H](CC(C)C)NC(=O)[C@H](C)NC(=O)[C@H](Cc2c[nH]c3ccccc23)NC(=O)[C@H](Cc2ccc(O)cc2)NC(=O)[C@H](CCC(N)=O)NC1=O)[C@@H](C)O [MP-163] (Ac-TSF[R8]QYWALL[S5]-NH2; staple 4-11)
[5]; 0% FBS 4Hr
  EC50: 11.5 µM
[1]
  EC50: > 50 µM
[6]
  LDH: Cytotoxicity assay % Effect: 6.049%
[7]; 0% FBS 4Hr
  TETCHO: Counterscreen % Effect: 21.33%
  EC50: > 50 µM

## CC(C)[C@@H](CS(=O)(=O)C(C)C)N1C(=O)[C@@](C)(CC(=O)O)C[C@H](c2cccc(Cl)c2)[C@H]1c1ccc(Cl)cc1 [AMG232]
[5]; 0% FBS 4Hr
  p53 reporter assay % Effect: 95.1%
[5]; 10% FBS 4Hr
  p53 reporter assay % Effect: 82.7%
[5]; 10% FBS 16Hr
  p53 reporter assay % Effect: 83.6%
[5]; Homo sapiens, HCT-116, 4 h, 0% FBS 4Hr
  EC50: 0.0116 µM
[5]; Homo sapiens, HCT-116, 4 h, 10% FBS 4Hr
  EC50: 0.0742 µM
[5]; Homo sapiens, HCT-116, 16 h, 10% FBS 16Hr
  EC50: 0.255 µM
[6]; 0% FBS 4Hr
  LDH: Cytotoxicity assay % Effect: -4.2%
[6]; 10% FBS 4Hr
  LDH: Cytotoxicity assay % Effect: -12.8%
[6]; 10% FBS 16Hr
  LDH: Cytotoxicity assay % Effect: -18.8%
[7]; 0% FBS 4Hr
  TETCHO: Counterscreen % Effect: 72.2%
[7]; 10% FBS 4Hr
  TETCHO: Counterscreen % Effect: 30.6%
[7]; 10% FBS 16Hr
  TETCHO: Counterscreen % Effect: -10.3%
[7]; T-REx-CHO-K1, 4 h, 0% FBS 4Hr
  EC50: 45.6 µM
[7]; T-REx-CHO-K1, 4 h, 10% FBS 4Hr
  EC50: > 50.4 µM
[7]; T-REx-CHO-K1, 16 h, 10% FBS 16Hr
  EC50: > 50.4 µM
[2]
  solubility kinetic: 138 µM (≈ 78.5 µg/mL)
[4]
  logD: 2.25

## CC(=O)N[C@H](C(=O)N[C@@H](CO)C(=O)N[C@@H](Cc1ccccc1)C(=O)N[C@]1(C)CCCCCCC=CCCC[C@@](C)(C(=O)NCCCCCC(=O)N[C@@H](CCCCN)C(N)=O)NC(=O)[C@H](CC(C)C)NC(=O)[C@H](CC(C)C)NC(=O)[C@H](C)NC(=O)[C@H](Cc2c[nH]c3ccccc23)NC(=O)[C@H](Cc2ccc(O)cc2)NC(=O)[C@H](CCC(=O)O)NC1=O)[C@@H](C)O [MP-164]
[5]; 0% FBS 4Hr
  EC50: 7.83 µM
[1]
  EC50: > 50 µM
[6]
  LDH: Cytotoxicity assay % Effect: 4.255%
[7]; 0% FBS 4Hr
  TETCHO: Counterscreen % Effect: 0.7814%
  EC50: > 50 µM

## CC(=O)N[C@@H](CCCNC(=N)N)C(=O)N[C@@H](CCCNC(=N)N)C(=O)N[C@@H](CCCNC(=N)N)C(=O)NCCCCCC(=O)N[C@H](C(=O)N[C@@H](CO)C(=O)N[C@@H](Cc1ccccc1)C(=O)N[C@]1(C)CCCCCCC=CCCC[C@@](C)(C(=O)N[C@@H](CCC(=O)O)C(=O)N[C@@H](CC(N)=O)C(=O)N[C@@H](Cc2ccc(O)cc2)C(N)=O)NC(=O)[C@H](CC(C)C)NC(=O)[C@H](CC(C)C)NC(=O)[C@H](C)NC(=O)[C@H](Cc2c[nH]c3ccccc23)NC(=O)[C@H](Cc2ccc(O)cc2)NC(=O)[C@H](CCC(=O)O)NC1=O)[C@@H](C)O [MP-012] (Ac-RRR[Ahx]TSF[R8]EYWALL[S5]ENY-NH2; staple 8-15)
[5]; 0% FBS 4Hr
  EC50: 34.2 µM
[1]
  EC50: > 50 µM
[6]
  LDH: Cytotoxicity assay % Effect: 36.73%
[7]; 0% FBS 4Hr
  TETCHO: Counterscreen % Effect: 23.79%
  EC50: > 50 µM
